Among the data in patent US8163724B2, “Glucocorticosteroids, processes for their preparation, pharmaceutical compositions containing them and their use in therapy” (AstraZeneca AB, priority 2007, dated 2012) are IC50 values, retold here.

This assay addresses T1, recombinant human GR (Homo sapiens, UniProt P04150).
T1 construct: purchased Panvera/Invitrogen P2812 (kit P2893)
T1 sequence (P04150 1-777): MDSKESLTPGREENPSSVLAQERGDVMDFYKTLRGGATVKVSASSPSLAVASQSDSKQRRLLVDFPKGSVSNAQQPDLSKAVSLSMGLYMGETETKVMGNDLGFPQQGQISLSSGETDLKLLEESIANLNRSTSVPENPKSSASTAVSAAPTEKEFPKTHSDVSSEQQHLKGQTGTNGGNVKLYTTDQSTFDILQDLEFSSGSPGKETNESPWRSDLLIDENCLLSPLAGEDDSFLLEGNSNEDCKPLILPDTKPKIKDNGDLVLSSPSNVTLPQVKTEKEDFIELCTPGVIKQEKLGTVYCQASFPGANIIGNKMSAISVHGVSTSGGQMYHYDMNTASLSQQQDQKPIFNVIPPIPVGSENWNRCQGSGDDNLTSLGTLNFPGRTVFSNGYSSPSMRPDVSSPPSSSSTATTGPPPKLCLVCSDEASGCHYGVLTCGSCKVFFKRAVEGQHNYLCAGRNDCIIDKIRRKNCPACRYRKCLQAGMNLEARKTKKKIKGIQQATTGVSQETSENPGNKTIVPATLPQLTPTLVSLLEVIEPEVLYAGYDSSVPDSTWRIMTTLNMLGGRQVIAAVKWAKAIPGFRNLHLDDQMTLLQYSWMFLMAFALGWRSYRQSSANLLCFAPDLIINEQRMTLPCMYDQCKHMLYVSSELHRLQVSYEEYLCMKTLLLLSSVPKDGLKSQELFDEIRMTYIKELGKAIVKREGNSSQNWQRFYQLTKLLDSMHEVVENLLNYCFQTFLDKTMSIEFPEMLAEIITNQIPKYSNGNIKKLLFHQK
As to the kind of experiment: Human Glucocorticoid Receptor (GR) Assay (fluorescence polarization, Panvera/Invitrogen kit). The note with it: fluorescence polarization; GS Red tracer; 2 hours at room temperature; 100% control 10 μM Dexamethasone; read-out: Inhibition of GR binding, IC50. It is filed as binding. As to the method: Human Glucocorticoid Receptor (GR) Assay
The assay is based on a commercial kit from Panvera/Invitrogen (Part number P2893). The assay technology is fluorescence polarization. […] The GR and Stabilizing Peptide reagents are stored at −70° C. while the GS Red is stored at −20° C. Also included in the kit are 1M DTT (Panvera, Part number P2325, stored at −20° C.) and GR Screening buffer 10× (Panvera, Part number P2814, stored at −70° C. initially but once thawed stored at room temperature). Avoid repeated freeze/thaws for all reagents. The GR Screening buffer 10× comprises 100 mM potassium phosphate, 200 mM sodium molybdate, 1 mM EDTA and 20% DMSO.
0% control was 100% DMSO and 100% control was 10 μM Dexamethasone. Background solution (8 μL; assay buffer 10×, Stabilizing Peptide, DTT and ice cold MQ water) was added to the background wells. GS Red solution (7 μL; assay buffer 10×, Stabilizing Peptide, DTT, GS Red and ice cold water) was added to all wells except background wells. GR solution (7 μL; assay buffer 10×, Stabilizing Peptide, DTT, GR and ice cold water) was added to all wells. The plate was sealed and incubated in a dark at room temperature for 2 hours.
`CCC(=O)O[C@]1(C(=O)SC(C)C#N)CC[C@H]2[C@@H]3CCC4=Cc5c(cnn5-c5ccc(F)cc5)C[C@]4(C)[C@H]3[C@@H](O)C[C@@]21C` (stereo partly drawn) [Example 12, (1R,3aS,3bS,10aR,10bS,11S,12aS)-1-{[(1-Cyanoethyl)thio]carbonyl}-7-(4-fluoro-phenyl)-11-hydroxy-10a,12a-dimethyl-1,2,3,3a,3b,4,5,7,10,10a,10b,11,12,12a-tetradecahydrocyclopenta[5,6]naphtho[1,2-f]indazol-1-yl propanoate]: the IC50 – broadly, the concentration that inhibits the measured activity by half – stood at 5.8 nM.

For the molecule `CCC(=O)O[C@]1(C(=O)SCC(N)=O)CC[C@H]2[C@@H]3CCC4=Cc5c(cnn5-c5ccc(F)cc5)C[C@]4(C)[C@H]3[C@@H](O)C[C@@]21C` [Example 13, (1R,3aS,3bS,10aR,10bS,11S,12aS)-{[(2-Amino-2-oxoethyl)thio]carbonyl}-7-(4-fluorophenyl)-11-hydroxy-10a,12a-dimethyl-1,2,3,3a,3b,4,5,7,10,10a,10b,11,12,12a-tetradecahydrocyclopenta[5,6]naphtho[1,2-f]indazol-1-yl propanoate], the IC50 was found to be 3.1 nM. `CCC(=O)O[C@]1(C(=O)SCOC)CC[C@H]2[C@@H]3CCC4=Cc5c(cnn5-c5ccc(F)cc5)C[C@]4(C)[C@H]3[C@@H](O)C[C@@]21C` [Example 14, (1R,3aS,3bS,10aR,10bS,11S,12aS)-7-(4-Fluorophenyl)-11-hydroxy-{[(methoxy-methyl)thio]carbonyl}-10a,12a-dimethyl-1,2,3,3a,3b,4,5,7,10,10a,10b,11,12,12a-tetradecahydrocyclopenta[5,6]naphtho[1,2-f]indazol-1-yl propanoate]: the half-maximal inhibitory concentration (IC50) came out at 3.6 nM. Consider `CCC(=O)O[C@]1(C(=O)SCCO)CC[C@H]2[C@@H]3CCC4=Cc5c(cnn5-c5ccc(F)cc5)C[C@]4(C)[C@H]3[C@@H](O)C[C@@]21C` [Example 15, (1R,3aS,3bS,10aR,10bS,11S,12aS)-7-(4-Fluorophenyl)-11-hydroxy-1-{[(2-hydroxyethyl)thio]carbonyl}-10a,12a-dimethyl-1,2,3,3a,3b,4,5,7,10,10a,10b,11,12,12a-tetradecahydropcyclopenta[5,6]naphtho[1,2-f]indazol-1-yl propanoate], for which the IC50 turned out to be 3.7 nM.

Take `CCC(=O)O[C@]1(C(=O)SCCC#N)CC[C@H]2[C@@H]3CCC4=Cc5c(cnn5-c5ccc(F)cc5)C[C@]4(C)[C@H]3[C@@H](O)C[C@@]21C` [Example 16, (1R,3aS,3bS,10aR,10bS,11S,12aS)-{[(2-Cyanoethyl)thio]carbonyl}-7-(4-fluoro-phenyl)-11-hydroxy-10a,12a-dimethyl-1,2,3,3a,3b,4,5,7,10,10a,10b,11,12,12a-tetradecahydrocyclopenta[5,6]naphtho[1,2-f]indazol-1-yl propanoate]: the IC50 stood at 3.4 nM. As to `CCC(=O)O[C@]1(C(=O)SCC(C)=O)CC[C@H]2[C@@H]3CCC4=Cc5c(cnn5-c5ccc(F)cc5)C[C@]4(C)[C@H]3[C@@H](O)C[C@@]21C` [Example 17, (1R,3aS,3bS,10aR,10bS,11S,12aS)-7-(4-Fluorophenyl)-11-hydroxy-10a,12a-dimethyl-1-{[(2-oxopropyl)thio]carbonyl}-1,2,3,3a,3b,4,5,7,10,10a,10b,11,12,12a-tetradecaphydrocyclopenta[5,6]naphtho[1,2-f]indazol-1-yl propanoate], the IC50 is 4.8 nM. `CCC(=O)O[C@]1(C(=O)SCC#CCO)CC[C@H]2[C@@H]3CCC4=Cc5c(cnn5-c5ccc(F)cc5)C[C@]4(C)[C@H]3[C@@H](O)C[C@@]21C` [Example 18, (1R,3aS,3bS,10aR,10bS,11S,12aS)-7-(4-Fluorophenyl)-11-hydroxy-1-{[(4-hydroxy-but-2-yn-1-yl)thio]carbonyl}-10a,12a-dimethyl-1,2,3,3a,3b,4,5,7,10,10a,10b,11,12,12a-tetradecahydrocyclopenta[5,6]naphtho[1,2-f]indazol-1-yl propanoate]: the IC50 was 4.1 nM.

Turning to `CCC(=O)O[C@]1(C(=O)SCF)CC[C@H]2[C@@H]3CCC4=Cc5c(cnn5-c5ccc(F)cc5)C[C@]4(C)[C@H]3[C@@H](O)C[C@@]21C` [Example 19, (1R,3aS,3bS,10aR,10bS,11S,12aS)-1-{[(Fluoromethyl)thio]carbonyl}-7-(4-fluoro-phenyl)-11-hydroxy-10a,12a-dimethyl-1,2,3,3a,3b,4,5,7,10,10a,10b,11,12,12a-tetradecahydrocyclopenta[5,6]naphtho[1,2-f]indazol-1-yl propanoate], the IC50 is 3.7 nM. As for `C#CCSC(=O)[C@@]1(OC(=O)CC)CC[C@H]2[C@@H]3CCC4=Cc5c(cnn5-c5ccc(F)cc5)C[C@]4(C)[C@H]3[C@@H](O)C[C@@]21C` [Example 20, (1R,3aS,3bS,10aR,10bS,11S,12aS)-7-(4-fluorophenyl)-11-hydroxy-10a,12a-dimethyl-1-[(prop-2-yn-1-ylthio)carbonyl]-1,2,3,3a,3b,4,5,7,10,10a,10b,11,12,12a-tetradecaphydrocyclopenta[5,6]naphtho[1,2-f]indazol-1-yl propanoate], the figure is 7.7 nM; as for `CCC(=O)O[C@]1(C(=O)SC)CC[C@H]2[C@@H]3CCC4=Cc5c(cnn5-c5ccc(F)cc5)C[C@]4(C)[C@H]3[C@@H](O)C[C@@]21C` [Example 21, (1R,3aS,3bS,10aR,10bS,11S,12aS)-7-(4-Fluorophenyl)-11-hydroxy-10a,12a-dimethyl-1-[(methylthio)carbonyl]-1,2,3,3a,3b,4,5,7,10,10a,10b,11,12,12a-tetradecahydropcyclopenta[5,6]naphtho[1,2-f]indazol-1-yl propanoate], 2.7 nM; as for `CCC(=O)O[C@]1(C(=O)SCC(=O)N(C)C)CC[C@H]2[C@@H]3CCC4=Cc5c(cnn5-c5ccc(F)cc5)C[C@]4(C)[C@H]3[C@@H](O)C[C@@]21C` [Example 22, (1R,3aS,3bS,10aR,10bS,11S,12aS)-1-({[2-(Dimethylamino)-2-oxoethyl]thio}carbonyl)-7-(4-fluorophenyl)-11-hydroxy-10a,12a-dimethyl-1,2,3,3a,3b,4,5,7,10,10a,10b,11,12,12a-tetradecahydrocyclopenta[5,6]naphtho[1,2-f]indazol-1-yl propanoate], 3.9 nM. As to `C=CCSC(=O)[C@@]1(OC(=O)CC)CC[C@H]2[C@@H]3CCC4=Cc5c(cnn5-c5ccc(F)cc5)C[C@]4(C)[C@H]3[C@@H](O)C[C@@]21C` [Example 23, (1R,3aS,3bS,10aR,10bS,11S,12aS)-7-(4-Fluorophenyl)-11-hydroxy-10a,12a-dimethyl-1-[(prop-2-en-1-ylthio)carbonyl]-1,2,3,3a,3b,4,5,7,10,10a,10b,11,12,12a-tetradecahydropcyclopenta[5,6]naphtho[1,2-f]indazol-1-yl propanoate], the IC50 turned out to be 13 nM.

On to `CCC(=O)O[C@]1(C(=O)SCCCO)CC[C@H]2[C@@H]3CCC4=Cc5c(cnn5-c5ccc(F)cc5)C[C@]4(C)[C@H]3[C@@H](O)C[C@@]21C` [Example 24, (1R,3aS,3bS,10aR,10bS,11S,12aS)-7-(4-Fluorophenyl)-11-hydroxy-1-{[(3-hydroxy-propyl)thio]carbonyl}-10a,12a-dimethyl-1,2,3,3a,3b,4,5,7,10,10a,10b,11,12,12a-tetradecahydrocyclopenta[5,6]naphtho[1,2-f]indazol-1-yl propanoate], for which the IC50 was 5.1 nM.
